Assay results: patent US20260365633A1, “Novel PEM Structures for SBX” (Roche Sequencing Solutions, Inc., priority 2023, published 2026)
Like-named read-outs stand apart in the source and are kept apart here.

How the values were obtained:
[1] = target: T1, C4760 DNA polymerase (a variant of DPO4) (Saccharolobus solfataricus, UniProt Q97W02, A155G/A42V/D156R/D292Y/D294N/E291S/E324K/E325K/E327K/E63R/E79L/G187P/G299W/I153V/I189F/I248T/I295S/K152A/K317Q/K321Q/K56Y/K78D/L293W/M76W/N188Y/P184Q/Q82W/Q83G/R300S/S297Y/S86E/T290K/T301W/V289W/V296Q); assay type: biochemical, Sulfolobus solfataricus; settings: for XNTP polymerization relative to compound 10: 30 minutes at 23 °C; for XNTP polymerization relative to compound 14: compound 16 at 2 Mm, compound 17 at 0.5, 1, 2, 3 Mm, 30 minutes at 37 °C, FIG. 13
T1 construct: Eco or Kod SSB in reaction as additive
T1 sequence (Q97W02 1-340 A155G/A42V/D156R/D292Y/D294N/E291S/E324K/E325K/E327K/E63R/E79L/G187P/G299W/I153V/I189F/I248T/I295S/K152A/K317Q/K321Q/K56Y/K78D/L293W/M76W/N188Y/P184Q/Q82W/Q83G/R300S/S297Y/S86E/T290K/T301W/V289W/V296Q): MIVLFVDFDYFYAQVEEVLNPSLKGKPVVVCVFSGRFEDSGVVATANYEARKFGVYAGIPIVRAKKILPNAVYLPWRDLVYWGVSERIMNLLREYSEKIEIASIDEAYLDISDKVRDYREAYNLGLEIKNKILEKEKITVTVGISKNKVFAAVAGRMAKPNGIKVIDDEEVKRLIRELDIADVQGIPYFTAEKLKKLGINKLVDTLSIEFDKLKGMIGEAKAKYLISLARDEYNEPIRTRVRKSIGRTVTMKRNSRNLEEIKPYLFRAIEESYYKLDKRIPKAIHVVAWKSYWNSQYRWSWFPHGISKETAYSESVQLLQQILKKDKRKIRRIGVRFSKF
Experimental: (§1) PEM activity of compound 12 was tested in primer extension assays using the HIV2 100mer template. Primer extension reactions included the following reagents: 50 Mm TrisCl, 200 Mm NH4Oac, 20% PEG8K, 5% NMS, 0.6 nmol PP-60.20, 0.6 Mm MnCl2, 2.75 μg/μl Eco single-strand binding protein (SSB), 1 M urea, 50 pmol each XNTP, 1.1 pmol template, 1 pmol [COMPOUND LEFT OUT] primer, 1.2 μg/μl purified recombinant C4760 DNA polymerase (SEQ ID NO: 2), and 0.5, 1, or 1.5 Mm PEM. 10 μL primer extension reactions were run for 30 minutes at 23 °C and reaction products were analyzed by gel electrophoresis.
as §1, with “compounds 13 and 14” for “compound 12”, “(a variant of DPO4, see SEQ” for “(SEQ”, “1, 1.52,” for “1,”, “2.5” for “1.5”, “electrophoresis. A representative gel showing primer extension products is presented in FIG. 11 (the position of the full length HIV2 100mer is indicated by the arrow).” for “electrophoresis.”
PEM activity of compounds 16, 17, and 18 and combinations thereof were tested in primer extension assays using the HIV2-derived 100mer template. […] 10 μL primer extension reactions were run for 30 minutes at 37 °C and reaction products were analyzed by gel electrophoresis. A representative gel showing primer extension products is presented in FIG. 13 (the position of a 100mer product is indicated by the arrow).

[2] = target: T1, C4760 DNA polymerase (a variant of DPO4); experiment: Primer extension on 45mer RNA template (HIV2) with C4760 polymerase, gel; assay type: biochemical, Sulfolobus solfataricus; settings: 2 Mm PEM, 45mer RNA template derived from HIV2, Kod SSB, 30 minutes at 37 °C
Experimental: To begin to investigate the potential of PEMs to enhance diverse polymerase reactions, the ability of PEMS to enable DNA polymerase to utilize RNA as a template was tested. An initial screen of several compounds set forth in Table 1 was conducted using a 45mer RNA template derived from the HIV2 genome sequence. Primer extension reactions included the following reagents: 50 Mm TrisCl, 200 Mm NH4OAc, 20% PEG8K, 5% NMS, 0.6 nmol PP-60.20, 0.6 Mm MnCl2, 2 μg Kod single-strand binding protein (SSB), 1 M urea, 50 pmol each XNTP, 0.5 pmol template, 0.5 pmol [COMPOUND LEFT OUT] primer, 1.2 μg purified recombinant C4760 DNA polymerase (a variant of DPO4, see SEQ ID NO: 2), and 2 Mm PEM. 10 μL primer extension reactions were run for 30 minutes at 37 °C and reaction products were analyzed by gel electrophoresis.

[3] = 0.5, 1, 1.52, or 2.5 Mm PEM, FIG. 11

Row | SMILES | PEM activity on RNA template [2] | further results
1 | N#Cc1cc(-c2cn(-c3ccc(O)c(C(=O)O)c3)nn2)nc(-c2cn(-c3ccc(O)c(C(=O)O)c3)nn2)c1 [Compound 12, 5,5′-((4-cyanopyridine-2,6-diyl)bis(1H-1,2,3-triazole-4,1-diyl))bis(2-hydroxybenzoic acid)] | – | XNTP polymerization relative to compound 10 ([1]; 0.5, 1, or 1.5 Mm PEM, FIG. 10): comparable to that of compound 10
2 | Cc1cc(-c2cn(-c3ccc(C(=O)O)c(O)c3)nn2)nc(-c2cn(-c3ccc(C(=O)O)c(O)c3)nn2)c1 [Compound 13, 4,4′-((4-methylpyridine-2,6-diyl)bis(1H-1,2,3-triazole-4,1-diyl))bis(2-hydroxybenzoic acid)] | – | XNTP polymerization relative to compound 10 [1, 3]: comparable to that of compound 10
3 | CCOC(=O)c1cc(-c2cn(-c3ccc(C(=O)O)c(O)c3)nn2)nc(-c2cn(-c3ccc(C(=O)O)c(O)c3)nn2)c1 [Compound 14, 4,4′-((4-(ethoxycarbonyl)pyridine-2,6-diyl)bis(1H-1,2,3-triazole-4,1-diyl))bis(2-hydroxybenzoic acid)] | – | XNTP polymerization relative to compound 10 [1, 3]: comparable to that of compound 10
4 | COC(=O)c1cc(-c2cn(-c3ccc(C(=O)O)c(O)c3)nn2)nc(-c2cn(-c3ccc(C(=O)O)c(O)c3)nn2)c1 [Compound 16, 4,4′-((4-(methoxycarbonyl)pyridine-2,6-diyl)bis(1H-1,2,3-triazole-4,1-diyl))bis(2-hydroxybenzoic acid)] | – | XNTP polymerization relative to compound 14 [1]: comparable to that of compound 14
5 | CCNC(=O)c1cc(-c2cn(-c3ccc(C(=O)O)c(O)c3)nn2)nc(-c2cn(-c3ccc(C(=O)O)c(O)c3)nn2)c1 [Compound 17, 4,4′-((4-(ethylcarbamoyl)pyridine-2,6-diyl)bis(1H-1,2,3-triazole-4,1-diyl))bis(2-hydroxybenzoic acid)] | display PEM activity on an RNA template | XNTP polymerization relative to compound 14 [1]: comparable to that of compound 14
6 | CCN(CC)C(=O)c1cc(-c2cn(-c3ccc(C(=O)O)c(O)c3)nn2)nc(-c2cn(-c3ccc(C(=O)O)c(O)c3)nn2)c1 [Compound 49, 4,4′-((4-(diethylcarbamoyl)pyridine-2,6-diyl)bis(1H-1,2,3-triazole-4,1-diyl))bis(2-hydroxybenzoic acid)] | display PEM activity on an RNA template | –
7 | O=C(O)c1ccc(-n2cc(-c3cc(C(=O)N4CCOCC4)cc(-c4cn(-c5ccc(C(=O)O)c(O)c5)nn4)n3)nn2)cc1O [Compound 51, 4,4′-((4-(morpholine-4-carbonyl)pyridine-2,6-diyl)bis(1H-1,2,3-triazole-4,1-diyl))bis(2-hydroxybenzoic acid)] | display PEM activity on an RNA template | –
8 | CCNC(=O)c1cc(-c2cn(-c3ccc(C(=O)O)c(C(F)(F)F)c3)nn2)nc(-c2cn(-c3ccc(C(=O)O)c(C(F)(F)F)c3)nn2)c1 [Compound 73, 4,4′-((4-(ethylcarbamoyl)pyridine-2,6-diyl)bis(1H-1,2,3-triazole-4,1-diyl))bis(2-(trifluoromethyl)benzoic acid)] | display PEM activity on an RNA template | –
9 | CCNC(=O)c1cc(-c2cn(-c3ccc(C(F)(F)F)c(C(=O)O)c3)nn2)nc(-c2cn(-c3ccc(C(F)(F)F)c(C(=O)O)c3)nn2)c1 [Compound 75, 5,5′-((4-(ethylcarbamoyl)pyridine-2,6-diyl)bis(1H-1,2,3-triazole-4,1-diyl))bis(2-(trifluoromethyl)benzoic acid)] | display PEM activity on an RNA template | –
10 | CCNC(=O)c1cc(-c2cn(-c3ccc(C(=O)O)c(F)c3)nn2)nc(-c2cn(-c3ccc(C(=O)O)c(F)c3)nn2)c1 [Compound 76, 4,4′-((4-(ethylcarbamoyl)pyridine-2,6-diyl)bis(1H-1,2,3-triazole-4,1-diyl))bis(2-fluorobenzoic acid)] | display PEM activity on an RNA template | –
11 | CCNC(=O)c1cc(-c2cn(-c3cc(C(=O)O)cc(C(F)(F)F)c3)nn2)nc(-c2cn(-c3cc(C(=O)O)cc(C(F)(F)F)c3)nn2)c1 [Compound 93, 5,5′-((4-(ethylcarbamoyl)pyridine-2,6-diyl)bis(1H-1,2,3-triazole-4,1-diyl))bis(3-(trifluoromethyl)benzoic acid)] | display PEM activity on an RNA template | –
12 | O=C(NCCO)c1cc(-c2cn(-c3ccc(C(=O)O)c(C(F)(F)F)c3)nn2)nc(-c2cn(-c3ccc(C(=O)O)c(C(F)(F)F)c3)nn2)c1 [Compound 105, 4,4′-((4-((2-hydroxyethyl)carbamoyl)pyridine-2,6-diyl)bis(1H-1,2,3-triazole-4,1-diyl))bis(2-(trifluoromethyl)benzoic acid)] | display PEM activity on an RNA template | –
13 | CCNC(=O)c1cc(-c2cn(-c3ccc(C(=O)O)c([N+](=O)[O-])c3)nn2)nc(-c2cn(-c3ccc(C(=O)O)c([N+](=O)[O-])c3)nn2)c1 [Compound 106, 4,4′-((4-(ethylcarbamoyl)pyridine-2,6-diyl)bis(1H-1,2,3-triazole-4,1-diyl))bis(2-nitrobenzoic acid)] | display PEM activity on an RNA template | –
14 | CCNC(=O)c1cc(-c2cn(-c3ccc(C(=O)NCC(=O)O)c(C(F)(F)F)c3)nn2)nc(-c2cn(-c3ccc(C(=O)NCC(=O)O)c(C(F)(F)F)c3)nn2)c1 [Compound 110, 2,2′-((4,4′-((4-(ethylcarbamoyl)pyridine-2,6-diyl)bis(1H-1,2,3-triazole-4,1-diyl))bis(2-(trifluoromethyl)benzoyl))bis(azanediyl))diacetic acid] | display PEM activity on an RNA template | –
15 | CCNC(=O)c1cc(-n2cc(-c3ccc(C(=O)O)c(C(F)(F)F)c3)nn2)cc(-n2cc(-c3ccc(C(=O)O)c(C(F)(F)F)c3)nn2)c1 [Compound 116, 4,4′-((5-(ethylcarbamoyl)-1,3-phenylene)bis(1H-1,2,3-triazole-1,4-diyl))bis(2-(trifluoromethyl)benzoic acid)] | display PEM activity on an RNA template | –
16 | O=C(O)c1ccc(-n2cc(-c3ccc(-c4cn(-c5ccc(C(=O)O)c(C(F)(F)F)c5)nn4)o3)nn2)cc1C(F)(F)F [Compound 118, 4,4′-(furan-2,5-diylbis(1H-1,2,3-triazole-4,1-diyl))bis(2-(trifluoromethyl)benzoic acid)] | display PEM activity on an RNA template | –
